In general, IC50 refers to the concentration at which inhibition is half-maximal.

SMILES strings stand for the structures. A value given as a limit tells only on which side of the number the result lay.

The experiment deals with T1, human recombinant full-length fatty acid synthase (FASN) (Homo sapiens, UniProt P49327).
T1 construct: 40 nM human recombinant full-length fatty acid synthase (produced in-house in SF9 cells); made in house; host or cells: SF9 insect cells
T1 sequence (P49327 whole entry): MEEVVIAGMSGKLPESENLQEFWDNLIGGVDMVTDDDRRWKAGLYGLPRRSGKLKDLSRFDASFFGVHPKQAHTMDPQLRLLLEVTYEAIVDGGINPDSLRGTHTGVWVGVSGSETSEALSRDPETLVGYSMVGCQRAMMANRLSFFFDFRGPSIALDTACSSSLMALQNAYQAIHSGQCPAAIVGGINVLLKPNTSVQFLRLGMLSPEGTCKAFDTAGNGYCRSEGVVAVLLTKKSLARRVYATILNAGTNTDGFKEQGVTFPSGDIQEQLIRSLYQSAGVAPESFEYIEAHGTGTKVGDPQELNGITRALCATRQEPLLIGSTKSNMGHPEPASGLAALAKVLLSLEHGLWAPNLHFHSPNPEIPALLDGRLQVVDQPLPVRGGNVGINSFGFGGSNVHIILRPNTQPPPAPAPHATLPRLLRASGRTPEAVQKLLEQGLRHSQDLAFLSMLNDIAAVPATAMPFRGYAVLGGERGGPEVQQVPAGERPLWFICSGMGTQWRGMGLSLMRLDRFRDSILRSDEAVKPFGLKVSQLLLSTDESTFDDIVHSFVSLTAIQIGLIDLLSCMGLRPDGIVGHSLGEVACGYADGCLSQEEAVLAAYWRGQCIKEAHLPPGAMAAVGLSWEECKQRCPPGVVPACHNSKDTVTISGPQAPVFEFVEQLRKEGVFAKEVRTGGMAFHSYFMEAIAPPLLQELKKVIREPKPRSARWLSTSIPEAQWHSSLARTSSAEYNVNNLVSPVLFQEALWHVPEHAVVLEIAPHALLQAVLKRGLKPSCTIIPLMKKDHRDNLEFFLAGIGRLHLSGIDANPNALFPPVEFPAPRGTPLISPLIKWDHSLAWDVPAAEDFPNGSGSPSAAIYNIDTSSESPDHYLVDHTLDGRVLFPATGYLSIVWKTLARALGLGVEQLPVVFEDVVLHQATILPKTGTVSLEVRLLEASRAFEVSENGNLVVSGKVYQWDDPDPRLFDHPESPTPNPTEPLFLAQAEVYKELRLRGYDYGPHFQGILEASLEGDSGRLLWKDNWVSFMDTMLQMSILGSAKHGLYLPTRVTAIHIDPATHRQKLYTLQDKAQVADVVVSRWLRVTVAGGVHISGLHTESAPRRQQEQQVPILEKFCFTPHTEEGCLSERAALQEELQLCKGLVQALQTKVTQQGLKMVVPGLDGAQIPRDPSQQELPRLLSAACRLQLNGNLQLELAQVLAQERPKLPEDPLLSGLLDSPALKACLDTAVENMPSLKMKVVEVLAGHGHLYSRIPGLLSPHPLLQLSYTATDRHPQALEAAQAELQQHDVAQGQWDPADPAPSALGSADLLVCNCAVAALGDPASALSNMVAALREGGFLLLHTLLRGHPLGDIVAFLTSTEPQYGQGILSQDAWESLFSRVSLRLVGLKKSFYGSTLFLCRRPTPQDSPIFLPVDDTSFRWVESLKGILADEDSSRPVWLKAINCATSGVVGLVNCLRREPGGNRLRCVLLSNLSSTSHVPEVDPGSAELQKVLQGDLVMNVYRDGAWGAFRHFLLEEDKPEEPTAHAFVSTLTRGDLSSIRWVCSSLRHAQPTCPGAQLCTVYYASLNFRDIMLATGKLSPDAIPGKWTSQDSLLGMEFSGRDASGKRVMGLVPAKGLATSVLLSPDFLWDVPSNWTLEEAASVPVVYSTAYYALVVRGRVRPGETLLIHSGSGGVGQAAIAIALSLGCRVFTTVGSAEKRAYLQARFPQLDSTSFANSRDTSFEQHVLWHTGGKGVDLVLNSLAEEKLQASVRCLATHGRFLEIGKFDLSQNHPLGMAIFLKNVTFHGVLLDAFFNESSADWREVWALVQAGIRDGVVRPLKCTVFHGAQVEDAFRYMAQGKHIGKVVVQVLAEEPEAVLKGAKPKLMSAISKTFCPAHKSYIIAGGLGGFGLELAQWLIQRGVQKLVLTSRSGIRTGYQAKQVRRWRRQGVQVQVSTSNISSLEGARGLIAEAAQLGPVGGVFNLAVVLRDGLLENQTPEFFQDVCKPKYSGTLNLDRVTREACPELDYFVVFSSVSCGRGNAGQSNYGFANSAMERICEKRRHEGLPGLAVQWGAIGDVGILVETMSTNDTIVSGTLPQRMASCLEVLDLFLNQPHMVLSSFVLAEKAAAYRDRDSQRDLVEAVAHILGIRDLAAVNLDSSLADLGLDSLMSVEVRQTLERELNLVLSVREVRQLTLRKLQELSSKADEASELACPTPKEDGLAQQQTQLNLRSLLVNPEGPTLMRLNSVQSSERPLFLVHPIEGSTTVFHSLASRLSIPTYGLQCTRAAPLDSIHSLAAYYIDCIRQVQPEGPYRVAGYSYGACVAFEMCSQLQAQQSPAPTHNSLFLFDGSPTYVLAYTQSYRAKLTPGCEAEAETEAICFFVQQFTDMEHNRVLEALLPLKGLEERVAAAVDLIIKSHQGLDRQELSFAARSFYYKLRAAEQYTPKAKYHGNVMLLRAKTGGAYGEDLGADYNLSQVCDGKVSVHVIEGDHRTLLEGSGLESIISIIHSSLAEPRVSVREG
The experiment is described as follows: Biochemical activity testing of human fatty acid synthase FASN (NADPH fluorescence intensity enzyme assay). The note with it: human recombinant FASN, enzyme assay. From the text: Biochemical Activity Testing of Human Fatty Acid Synthase FASN
Fatty acid synthase FASN is a multifunctional enzyme with seven catalytic activities thereby synthesising long chain fatty acids especially palmitoyl-CoA in the presence of co-factor NADPH starting from the substrates acetyl-CoA and malonyl-CoA. The reductive synthesis is realized by the oxidation of NADPH to NADP. Since NADPH has a high fluorescence intensity quantum yield compared to NADP with excitation at 340 nm and emission at 460 nm, the reaction can be monitored via the decrease in fluorescence intensity. The biochemical FASN activity testing was performed as 384 well two-time-point kinetic fluorescence intensity assay format in Greiner low volume medium binding 384-well black microtiter plates in a total assay volume of 8 μl and was used for high throughput screen. In each well 3 μl 40 nM human recombinant full-length fatty acid synthase (produced in-house in SF9 cells) were dispensed in the following assay buffer: 50 mM potassium phosphate buffer pH 7.0, 0.005% (w/v) BSA, 2 mM Glutathione, 0.02% Tween-20. Then 2 μl of 200 μM NADPH in assay buffer were added, followed by the addition of the test compounds in 10 dilution concentrations starting with 30 μM (final concentration) to get a final DMSO content of 1% (v/v). The mixture was incubated for at least 15 min at room temperature. After the pre-incubation the enzymatic reaction was started by the addition of 2 μl substrate solution (80 μM acetyl-CoA, 240 μM malonyl-CoA). A first fluorescence intensity measurement (time point one) was performed with an Envision multimode reader (Perkin Elmer LAS Germany GmbH) at excitation wavelength 340 nm (lamp mode) and emission wavelength 460 nm. The reaction was incubated for 30 minutes at room temperature. After this the fluorescence intensity was measured again in the Envision using the same parameters as described above (second time point measurement). The data were analysed by subtracting the first time point measurement value from the second time point measurement value (after the enzymatic reaction). The differences of the emission signals were determined. These reflect directly the conversion rate of NADPH. The full value used was the inhibitor-free reaction. A pharmacological zero value was used like GSK837149A (Sigma-Aldrich) in a final concentration of 5-10 μM. The inhibitory values (IC50) were determined using either the program Symyx Assay Explorer® or Condosseo® from GeneData.
For `CCC(=O)N[C@H]1CC[C@@H](n2nncc2-c2ccc(-c3ccc4cnn(C)c4c3)cc2)C1` [Compound A63, N-((1S,3R)-3-{5-[4-(1-Methyl-1H-indazol-6-yl)-phenyl]-[1,2,3]triazol-1-yl}-cyclopentyl)-propionamide], the IC50 is less than 300 nM.
As for `CCC(=O)N[C@H]1CC[C@@H](n2nncc2-c2ccc(-c3ccc(Cl)c(F)c3)cc2)C1` [Compound A75, N-{(1S,3R)-3-[5-(4′-Chloro-3′-fluoro-biphenyl-4-yl)-[1,2,3]triazol-1-yl]-cyclopentyl}-propionamide], the figure is less than 300 nM; as for `CCC(=O)N[C@H]1CC[C@@H](n2nncc2-c2ccc(-c3ccc4[nH]ccc4c3)nc2)C1` [Compound A107, N-((1S,3R)-3-{5-[6-(1H-Indol-5-yl)-pyridin-3-yl]-[1,2,3]triazol-1-yl}-cyclopentyl)-propionamide], less than 300 nM; as for `CC1(NC(=O)[C@H]2CC[C@@H](n3cncc3-c3ccc(-c4nc5ccccc5o4)cc3)C2)CC1` [Compound A4, (1S,3R)-3-[5-(4-benzoxazol-2-yl-phenyl)-imidazol-1-yl]-cyclopentanecarboxylic acid (1-methyl-cyclopropyl)-amide], less than 300 nM.
As for `CCC(=O)N[C@H]1CC[C@@H](n2nncc2-c2ccc(-c3ccc4ccn(C)c4c3)nc2)C1` [Compound A122, N-((1S,3R)-3-{5-[6-(1-Methyl-1H-indol-6-yl)-pyridin-3-yl]-[1,2,3]triazol-1-yl}-cyclopentyl)-propionamide], the IC50 lay within 300 to 3000 nM.
Turning to `CCC(=O)N[C@H]1CC[C@@H](n2nncc2-c2ccc(-c3ccc4cc[nH]c4c3)nc2)C1` [Compound A121, N-((1S,3R)-3-{5-[6-(1H-Indol-6-yl)-pyridin-3-yl]-[1,2,3]triazol-1-yl}-cyclopentyl)-propionamide], the IC50 is less than 300 nM.
Regarding `CCC(=O)N[C@H]1CC[C@@H](n2nncc2-c2ccc(-c3ccc(Cl)cc3)cc2)C1` [Compound A25, N-{(1S,3R)-3-[5-(4′-chloro-biphenyl-4-yl)-[1,2,3]triazol-1-yl]-cyclopentyl}-propionamide], the IC50 is less than 300 nM.
For `CCNC(=O)[C@H]1CC[C@@H](n2cncc2-c2ccc(-c3ccc(Cl)cc3)cc2)C1` [Compound A3, (1S,3R)-3-[5-(4′-Chloro-biphenyl-4-yl)-imidazol-1-yl]-cyclopentanecarboxylic acid ethylamide] the value was less than 300 nM; for `CCC(=O)N[C@H]1CC[C@@H](n2nncc2-c2ccc(-c3ccc(C#N)cc3F)cc2)C1` [Compound A62, N-{(1S,3R)-3-[5-(4′-Cyano-2′-fluoro-biphenyl-4-yl)-[1,2,3]triazol-1-yl]-cyclopentyl}-propionamide], less than 300 nM; for `CCC(=O)N[C@H]1CC[C@@H](n2cnnc2-c2ccc(-c3cccc4[nH]ncc34)cc2)C1` [Compound A42, N-((1S,3R)-3-{3-[4-(1H-indazol-4-yl)-phenyl]-[1,2,4]triazol-4-yl}-cyclopentyl)-propionamide], less than 300 nM.
Consider `CCNC(=O)[C@H]1CC[C@@H](n2nncc2-c2ccc(-c3ccc4cc[nH]c4c3)cc2)C1` [Compound A16, (1S,3R)-3-{5-[4-(1H-indol-6-yl)-phenyl]-[1,2,3]triazol-1-yl}-cyclopentanecarboxylic acid ethylamide], for which the IC50 was less than 300 nM.
For `CC(=O)N[C@H]1CC[C@@H](n2nncc2-c2ccc(-c3nc4ccccc4o3)cc2)C1` [Compound A24, N-{(1S,3R)-3-[5-(4-benzoxazol-2-yl-phenyl)-[1,2,3]triazol-1-yl]-cyclopentyl}-acetamide] the value was less than 300 nM; for `CCC(=O)N[C@H]1CC[C@@H](n2nncc2-c2ccc(-c3ccc4[nH]ccc4c3)cn2)C1` [Compound A117, N-((1S,3R)-3-{5-[5-(1H-Indol-5-yl)-pyridin-2-yl]-[1,2,3]triazol-1-yl}-cyclopentyl)-propionamide], less than 300 nM.
As for `CCC(=O)N[C@H]1CC[C@@H](n2nncc2-c2ccc(-c3ccc4[nH]ccc4c3F)nc2)C1` [Compound A108, N-((1S,3R)-3-{5-[6-(4-Fluoro-1H-indol-5-yl)-pyridin-3-yl]-[1,2,3]triazol-1-yl}-cyclopentyl)-propionamide], the figure is less than 300 nM.
As for `CCC(=O)N[C@H]1CC[C@@H](n2cnnc2-c2ccc(-c3ccc(-n4cccn4)cc3)cc2)C1` [Compound A96, N-{(1S,3R)-3-[3-(4′-Pyrazol-1-yl-biphenyl-4-yl)[1,2,4]triazol-4-yl]-cyclopentyl}-propionamide], the figure is less than 300 nM.
Consider `CCC(=O)N[C@H]1CC[C@@H](n2nncc2-c2ccc(-c3cc4cc[nH]c4cc3F)c(F)c2)C1` [Compound A120, N-((1S,3R)-3-{5-[3-Fluoro-4-(6-fluoro-1H-indol-5-yl)-phenyl]-[1,2,3]triazol-1-yl}-cyclopentyl)-propionamide], for which the 50% inhibitory concentration (IC50) was less than 300 nM.
For `CCC(=O)N[C@H]1CC[C@@H](n2nncc2-c2ccc(-c3ccc4[nH]c(=O)[nH]c4c3)cc2)C1` [Compound A87, N-((1S,3R)-3-{5-[4-(2-Oxo-2,3-dihydro-1H-benzimidazol-5-yl)-phenyl]-[1,2,3]triazol-1-yl}-cyclopentyl)-propionamide], the IC50 is less than 300 nM.
In the case of `CCC(=O)N[C@H]1CC[C@@H](n2nncc2-c2ccc(-c3ccc4nccn4c3)cc2)C1` [Compound A111, N-{(1S,3R)-3-[5-(4-Imidazo[1,2-a]pyridin-6-yl-phenyl)-[1,2,3]triazol-1-yl]-cyclopentyl}-propionamide], the IC50 was less than 300 nM.
As for `CCC(=O)N[C@H]1CC[C@@H](n2cnnc2-c2ccc(-c3cc4cn[nH]c4cc3C)cc2)C1` [Compound A98, N-((1S,3R)-3-{3-[4-(6-Methyl-1H-indazol-5-yl)-phenyl]-[1,2,4]triazol-4-yl}-cyclopentyl)-propionamide], the figure is less than 300 nM.
Consider `CCC(=O)N[C@H]1CC[C@@H](n2nncc2-c2ccc(-c3ccc4[nH]ccc4n3)cn2)C1` [Compound A118, N-((1S,3R)-3-{5-[5-(1H-Pyrrolo[3,2-b]pyridin-5-yl)-pyridin-2-yl]-[1,2,3]triazol-1-yl}-cyclopentyl)-propionamide], for which the IC50 was less than 300 nM.
As for `CCNC(=O)[C@H]1CC[C@@H](n2nncc2-c2ccc(-c3ccc(C(=O)O)cc3)cc2)C1` [Compound A100, 4′-[3-((1R,3S)-3-Ethylcarbamoyl-cyclopentyl)-3H-[1,2,3]triazol-4-yl]-biphenyl-4-carboxylic acid], the figure is 300 to 3000 nM; as for `CCC(=O)N[C@H]1CC[C@@H](n2nncc2-c2ccc(-c3cccc4[nH]ncc34)cc2)C1` [Compound A26, N-((1S,3R)-3-{5-[4-(1H-indazol-4-yl)-phenyl]-[1,2,3]triazol-1-yl}-cyclopentyl)-propionamide], less than 300 nM; as for `CCNC(=O)[C@H]1CC[C@@H](n2nncc2-c2ccc(-c3ccc(Cl)c(F)c3)cc2)C1` [Compound A104, (1S,3R)-3-[5-(4′-Chloro-3′-fluoro-biphenyl-4-yl)-[1,2,3]triazol-1-yl]-cyclopentanecarboxylic acid ethylamide], less than 300 nM.
For `CCC(=O)N[C@H]1CC[C@@H](n2nncc2-c2ccc(-c3ccc4[nH]cnc4c3)cc2)C1` [Compound A73, N-((1S,3R)-3-{5-[4-(1H-Benzimidazol-5-yl)-phenyl]-[1,2,3]triazol-1-yl}-cyclopentyl)-propionamide] the value was less than 300 nM.

(Values after patent publication US9718785B2, “1,3-Disubstituted cyclopentane derivatives” (MERCK PATENT GMBH, priority 2013, dated 2017).)
